US10266497B2 (ABIDE THERAPEUTICS, INC., priority 2017, dated 2019)

Tests used:
[1] = target: T1, MAGL (Homo sapiens, UniProt Q99685); experiment: In vitro competitive activity-based protein profiling, MAGL, human; settings: for inhibition at 1 µM: read-out: MAGL % inh. 1 μM (human)
T1 sequence (Q99685 1-303): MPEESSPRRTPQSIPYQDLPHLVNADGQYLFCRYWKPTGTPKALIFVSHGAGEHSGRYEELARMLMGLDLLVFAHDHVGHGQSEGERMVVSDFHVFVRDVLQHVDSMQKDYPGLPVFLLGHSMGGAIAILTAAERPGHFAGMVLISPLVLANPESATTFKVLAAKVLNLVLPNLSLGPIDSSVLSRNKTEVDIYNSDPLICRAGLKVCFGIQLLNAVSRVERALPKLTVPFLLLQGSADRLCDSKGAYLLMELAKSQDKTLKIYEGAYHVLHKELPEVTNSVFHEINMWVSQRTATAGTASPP
Experimental: (§1) Biological Evaluation In Vitro Competitive Activity-Based Protein Profiling.
(§2) Proteomes (mouse brain membrane fraction for mouse assays; human prefrontal cortex membrane fractions for human assays) (50 mL, 1.0 mg/mL total protein concentration) were preincubated with varying concentrations of inhibitors at 37° C. After 30 min, FP-Rh (1.0 mL, 50 mM in DMSO) was added and the mixture was incubated for another 30 min at 37° C. Reactions were quenched with SDS loading buffer (15 μL—4λ) and run on SDS-PAGE.

[2] = target: T2, MAGL (Mus musculus, UniProt O35678); experiment: In vitro competitive activity-based protein profiling, MAGL, mouse; settings: read-out: MAGL % inh. 1 μM (mouse)
T2 sequence (O35678 1-303): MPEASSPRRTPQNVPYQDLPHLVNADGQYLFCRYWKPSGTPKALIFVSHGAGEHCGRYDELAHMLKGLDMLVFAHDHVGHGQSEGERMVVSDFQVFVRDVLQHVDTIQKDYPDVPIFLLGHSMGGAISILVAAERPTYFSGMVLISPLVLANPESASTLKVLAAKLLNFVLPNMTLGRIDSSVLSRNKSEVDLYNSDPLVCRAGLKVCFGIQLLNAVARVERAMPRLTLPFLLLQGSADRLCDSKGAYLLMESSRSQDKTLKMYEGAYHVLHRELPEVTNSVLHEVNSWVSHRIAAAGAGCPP
Experimental: as §1, §2

[3] = target: T3, FAAH (Homo sapiens, UniProt O00519); experiment: In vitro competitive activity-based protein profiling, FAAH, human; settings: for inhibition at 1 µM: read-out: FAAH % inh. 1 μM (human)
T3 sequence (O00519 1-579): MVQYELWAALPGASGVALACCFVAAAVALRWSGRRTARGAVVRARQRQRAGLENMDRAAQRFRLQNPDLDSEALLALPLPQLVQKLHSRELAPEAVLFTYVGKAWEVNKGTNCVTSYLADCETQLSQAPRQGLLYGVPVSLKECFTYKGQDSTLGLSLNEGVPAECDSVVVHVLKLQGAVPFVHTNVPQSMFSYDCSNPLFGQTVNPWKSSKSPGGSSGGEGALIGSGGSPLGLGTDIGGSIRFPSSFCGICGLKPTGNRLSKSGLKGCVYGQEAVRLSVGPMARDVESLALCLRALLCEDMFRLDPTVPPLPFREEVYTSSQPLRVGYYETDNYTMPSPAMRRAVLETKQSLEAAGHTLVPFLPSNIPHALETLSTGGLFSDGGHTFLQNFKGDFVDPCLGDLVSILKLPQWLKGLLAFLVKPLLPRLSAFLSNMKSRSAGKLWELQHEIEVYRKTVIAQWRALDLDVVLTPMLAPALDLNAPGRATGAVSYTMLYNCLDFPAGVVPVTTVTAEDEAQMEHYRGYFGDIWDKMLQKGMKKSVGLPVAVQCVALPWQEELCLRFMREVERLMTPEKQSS

[4] = target: T4, FAAH (Mus musculus, UniProt O08914); experiment: In vitro competitive activity-based protein profiling, FAAH, mouse; settings: read-out: FAAH % inh. 1 μM (mouse)
T4 sequence (O08914 1-579): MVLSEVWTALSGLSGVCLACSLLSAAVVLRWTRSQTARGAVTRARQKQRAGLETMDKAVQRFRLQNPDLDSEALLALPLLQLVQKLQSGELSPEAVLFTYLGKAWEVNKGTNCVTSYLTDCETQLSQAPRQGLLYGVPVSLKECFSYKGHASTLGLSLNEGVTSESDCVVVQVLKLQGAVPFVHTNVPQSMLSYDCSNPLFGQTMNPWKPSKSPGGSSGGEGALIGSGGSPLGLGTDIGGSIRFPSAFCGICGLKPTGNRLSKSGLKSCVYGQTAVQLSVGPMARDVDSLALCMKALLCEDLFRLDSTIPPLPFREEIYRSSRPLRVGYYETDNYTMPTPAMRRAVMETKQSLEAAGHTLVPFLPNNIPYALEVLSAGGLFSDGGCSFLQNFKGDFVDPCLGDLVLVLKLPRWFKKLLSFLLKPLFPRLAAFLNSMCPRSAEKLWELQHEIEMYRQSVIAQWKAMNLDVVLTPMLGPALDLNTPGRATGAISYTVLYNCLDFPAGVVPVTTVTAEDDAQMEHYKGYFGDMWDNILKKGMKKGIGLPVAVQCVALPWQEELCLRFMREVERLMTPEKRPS

Row | Compound | inhibition at 1 µM [1] [%] | inhibition at 1 µM [2] [%] | inhibition at 1 µM [3] [%] | inhibition at 1 µM [4] [%] | IC50 [3] [nM] | IC50 [1] [nM]
1 | NC(=O)c1ccn(C(=O)N2CCC3(CCN(Cc4cc(Cl)ccc4C(F)(F)F)C3)CC2)n1 [Example 99, 1-(2-(5-chloro-2-(trifluoromethyl)benzyl)-2,8-diazaspiro[4.5]decane-8-carbonyl)-1H-pyrazole-3-carboxamide] | > 75 | > 75 | > 75 | > 75 |  | 
2 | O=C(O)c1ccn(C(=O)N2CCN(Cc3cccc(Oc4cccc(Cl)c4)c3)CC2)n1 [Example 84, 1-(4-(3-(3-chlorophenoxy)benzyl)piperazine-1-carbonyl)-1H-pyrazole-3-carboxylic acid] | > 75 | > 75 | 0 to 25 | 50 to 75 | 100 to 1000 | 
3 | O=C(O)c1ccn(C(=O)N2CCC3(CCN(Cc4ccc(N5CCOCC5)cc4Cl)C3)CC2)n1 [Example 169, 1-(2-(2-chloro-4-morpholinobenzyl)-2,8-diazaspiro[4.5]decane-8-carbonyl)-1H-pyrazole-3-carboxylic acid] | 25 to 50 | 0 to 25 | 0 to 25 | 0 to 25 |  | 
4 | O=C(O)c1ccn(C(=O)N2CCN(Cc3cccc(Oc4cncnc4)c3)CC2)n1 [Example 65, 1-(4-(3-(pyrimidin-5-yloxy)benzyl)piper-azine-1-carbonyl)-1H-pyrazole-3-carboxylic acid] | 50 to 75 | 25 to 50 | 0 to 25 | 0 to 25 |  | 
5 | O=C(O)c1ccn(C(=O)N2CCC3(CCN(Cc4ccc(N5CCCC5)cc4C(F)(F)F)C3)CC2)n1 [Example 191, 1-(2-(4-(pyrrolidin-1-yl)-2-(trifluoromethyl)benzyl)-2,8-diazaspiro[4.5]decane-8-carbonyl)-1H-pyrazole-3-carboxylic acid] | > 75 | > 75 | 0 to 25 | 0 to 25 |  | 
6 | O=C(O)c1ccn(C(=O)N2C[C@H]3C[C@@H](Oc4cccc(-c5ccccc5)c4)C[C@H]3C2)n1 [Example 164, 1-(cis-5-([1,1′-biphenyl]-3-yloxy)octahydro-cyclopenta[c]pyrrole-2-carbonyl)-1H-pyrazole-3-carboxylic acid] | > 75 | > 75 | > 75 | 25 to 50 | 100 to 1000 | 
7 | O=C(O)c1ccn(C(=O)N2CCC3(CCCN3Cc3ccc(C(F)(F)F)cc3N3C4CCC3COC4)CC2)n1 [Example 82, 1-(1-(2-(3-oxa-8-azabicyclo[3.2.1]octan-8-yl)-4-(trifluoromethyl)benzyl)-1,8-diazaspiro[4.5]decane-8-carbonyl)-1H-pyrazole-3-carboxylic acid] | > 75 | > 75 | 0 to 25 | 0 to 25 |  | 
8 | O=C(O)c1nn(C(=O)N2CCC3(CCCN3Cc3cc4ccc(C(F)(F)F)cc4s3)CC2)cc1C(F)(F)F [Example 149, 4-(trifluoromethyl)-1-(1-((6-(trifluoromethyl)benzo[b]thiophen-2-yl)methyl)-1,8-diazaspiro[4.5]decane-8-carbonyl)-1H-pyrazole-3-carboxylic acid] | > 75 | > 75 | 25 to 50 | > 75 | 1000 to 10000 | 100 to 1000
9 | O=C(O)c1nn(C(=O)N2CCN(Cc3ccc(-c4cnc5ccccn45)cc3C(F)(F)F)CC2)cc1Cl [Example 145, 4-chloro-1-(4-(4-(imidazo[1,2-a]pyridin-3-yl)-2-(trifluoromethyl)benzyl)piperazine-1-carbonyl)-1H-pyrazole-3-carboxylic acid] | > 75 | > 75 | 50 to 75 | > 75 |  | 

Results, then the compound that gave them:

Row | inhibition at 1 µM [1] [%] | inhibition at 1 µM [2] [%] | inhibition at 1 µM [3] [%] | inhibition at 1 µM [4] [%] | IC50 [3] [nM] | IC50 [1] [nM] | Compound
10 | > 75 | > 75 | 0 to 25 | 0 to 25 |  |  | Cc1c(CN2CCC3(CCN(C(=O)n4ccc(C(=O)O)n4)CC3)C2)cccc1C(F)(F)F [Example 71, 1-(2-(2-methyl-3-(trifluoromethyl)benzyl)-2,8-diazaspiro[4.5]decane-8-carbonyl)-1H-pyrazole-3-carboxylic acid]
11 | > 75 | > 75 | > 75 | > 75 |  |  | NC(=O)c1ccn(C(=O)N2CC3CN(Cc4ccc(Cl)cc4)CC3C2)n1 (stereo not drawn) [Example 203, 1-(5-(4-chlorobenzyl)octa-hydropyrrolo[3,4-c]pyrrole-2-carbonyl)-1H-pyrazole-3-carboxamide]
12 | 25 to 50 | 0 to 25 | 50 to 75 | 0 to 25 |  |  | O=C(O)c1ccn(C(=O)N2CCN(Cc3cccc(Oc4ccncn4)c3)CC2)n1 [Example 63, 1-(4-(3-(pyrimidin-4-yloxy)benzyl)piper-azine-1-carbonyl)-1H-pyrazole-3-carboxylic acid]
13 | > 75 | > 75 | > 75 | > 75 | 100 to 1000 | 100 to 1000 | O=C(O)c1nn(C(=O)N2CC3CN(Cc4cccc(Oc5ccc(Cl)cc5)c4)CC3C2)cc1Cl (stereo not drawn) [Example 137, 4-chloro-1-(5-(3-(4-chlorophenoxy)benzyl)octahydro-pyrrolo[3,4-c]pyrrole-2-carbonyl)-1H-pyrazole-3-carboxylic acid]
14 | 0 to 25 | 0 to 25 | > 75 | > 75 | 100 to 1000 | 1000 to 10000 | O=C(O)c1nn(C(=O)N2CC3CC(OCc4ccccc4Cl)CC3C2)cc1C(F)(F)F (stereo not drawn) [Example 143, 1-(5-((2-chlorobenzyl)oxy)octahydrocyclopenta [c]pyrrole-2-carbonyl)-4-(trifluoromethyl)-1H-pyrazole-3-carboxylic acid]
15 | > 75 | > 75 | > 75 | > 75 | 100 to 1000 |  | O=C(O)c1ccn(C(=O)N2CCN(Cc3cc(Cl)cc(Oc4ccc(Cl)cc4)c3)CC2)n1 [Example 19, 1-(4-(3-Chloro-5-(4-chlorophenoxy)benzyl)piperazine-1-carbonyl)-1H-pyrazole-3-carboxylic Acid]
16 | 50 to 75 | > 75 | 0 to 25 | 0 to 25 |  |  | O=C(O)c1ccn(C(=O)N2CC3CN(Cc4ccc(Cl)c(N5CC6COCC6C5)c4)CC3C2)n1 (stereo not drawn) [Example 166, 1-(5-(4-chloro-3-(tetrahydro-1H-furo[3,4-c]pyrrol-5(3H)-yl)benzyl)octahydropyrrolo[3,4-c]pyrrole-2-carbonyl)-1H-pyrazole-3-carboxylic acid]
17 | > 75 | > 75 | > 75 | > 75 | 100 to 1000 |  | O=C(O)c1ccn(C(=O)N2CCN(Cc3ccc(Oc4ccc(Cl)cc4)cc3)CC2)n1 [Example 45, 1-(4-(4-(4-chlorophenoxy)benzyl)piperazine-1-carbonyl)-1H-pyrazole-3-carboxylic acid]
